Test results published in publication PMC2532997, “Methoxylation enhances stilbene bioactivity in Caenorhabditis elegans” (BMC Pharmacology, 2008).

Assays:
[1] = Determination of stilbene uptake (steady-state levels by GC-MS); type: in vivo, Caenorhabditis elegans; conditions: animals treated for 2 days with 100 μM in the culture medium
From the text: The differential bioactivities of methoxylated and hydroxylated stilbenes in C. elegans adults might reflect differences in uptake or bioavailability. In general, intact C. elegans adults take up compounds relatively poorly due to their thick, impermeable cuticle. This impermeability has impeded pharmacodynamic analysis in this organism. However, steady-state levels of compounds can be measured in treated animals to provide one measure of pharmacodynamics. To assess whether differential uptake correlated with bioactivity in C. elegans, steady-state levels for pterostilbene, resveratrol-trimethylether and desoxyrhapontigenin were determined in animals treated for 2 days with 100 μM of each compound in the culture medium. […] These concentrations were within the range of serum stilbene levels detected after dietary stilbene supplementation with human volunteers (approx. 2 μM) and rabbits (42.8 μM). […]
Uptake was determined for three stilbenes (desoxyrhapontigenin, pterostilbene and resveratrol-trimethylether) by measuring the steady-state levels of each stilbene in adult fem-1(hc17) hermaphrodites treated under the same conditions as those used for survival assays. […] Derivatized sample was analyzed for stilbenes by gas chromatography-mass spectrometry (GC-MS). […] Quantitation was performed from calibration curve of authentic stilbene samples. […]

[2] = test system: C. elegans fem-1(hc17) sterile adults; assay: Adult survival assay of sterile fem-1(hc17) adults on compound-supplemented medium; type: in vivo, Caenorhabditis elegans
Protocol: For survival assays, young adult (day 0) animals were transferred onto fresh medium supplemented with the test compound at a range of concentrations. The compounds were tested at indicated concentrations in the growth medium (below). C. elegans nematodes are surrounded by a thick collagenous cuticle and are therefore relatively impermeable to environmental compounds. […] Survival was scored every 2–3 days as the ability to move in response to a gentle mechanical stimulus. During the first week of adulthood, C. elegans hermaphrodites are reproductively competent and normally produce 200–300 progeny. Since progeny production would complicate survival analysis, these experiments were performed using fem-1(hc17) animals that are sterile due to a spermatogenesis defect.
Resveratrol and picetannol were obtained from commercial sources (Sigma-Aldrich, Inc. and Calbiochem-Novobiochem Corp., respectively). The methoxylated stilbenes pinostilbene, desoxyrhapontigenin, 3-hydroxy-5,4'-dimethoxystilbene and pterostilbene (Figure 1) were synthesized by partial methylation of trans-resveratrol as previously reported. The methoxylated stilbenes were purified by preparative layer chromatography (Merck Silica gel 60 F254; EMD Chemicals Inc., Gibbstown, NJ) using the developing solvent chloroform:methanol (96:4) with 1% formic acid. […] These stilbenes were identified from their ^1H-NMR spectra (Bruker 400 MHz; Bruker, Billerica, MA). All stilbenes were dissolved in ethanol to 25 mg/mL before use. 5-Fluoro-deoxyuracil (Sigma Chemical Co.) was dissolved to 1 mg/mL in sterile water and stored frozen at -20°C until use. For treating C. elegans adults, each compound was added in a 200 μL volume to the top of a 1-day old bacterial lawn grown on NGM medium to final concentrations as indicated. Compounds were allowed 2 hours to diffuse through the agar medium before animals were added.
For survival analyses, synchronized populations of sterile fem-1(hc17) hermaphrodites were obtained by first transferring several fertile hermaphrodites to a fresh plate at 25°C and allowing them to lay eggs for several hours. The parent hermaphrodites were removed and embryos were allowed to develop into sterile adults at 25°C, which takes approximately 48 hours. On the first day of adulthood, referred to as day 0, sterile adults were transferred onto fresh media supplemented with stilbenes at indicated concentrations, and maintained at 25°C. Adult survival was scored every 2–3 days by the animal's ability to move in response to a gentle mechanical stimulus. Statistical analysis of survival was performed using the JMP software package.

With `COc1ccc(/C=C/c2cc(OC)cc(OC)c2)cc1` [Resveratrol-trimethylether, resveratrol-trimethylether] the “steady-state level relative to pterostilbene” value [1] was “less than one-third the level of pterostilbene”, the “Mean lifespan, Treated” value ([2]; Trial 1, 100 μM in medium, from day 0 of adulthood, 25°C, control 12.16 days) was 9.7 days and the Relative survival ([2]; Trial 1, 100 μM, treated vs control mean lifespan) was 80%. For the same compound, the Relative survival ([2]; Trial 4, 20 μM) was 69%, the “Mean lifespan, Treated” value ([2]; Trial 4, 20 μM, control 11.26 days) was 7.72 days and the Relative survival ([2]; Trial 4, 40 μM) was 69%. For the same compound, the “Mean lifespan, Treated” value ([2]; Trial 4, 40 μM, control 11.26 days) was 7.72 days, the Relative survival ([2]; Trial 4, 100 μM) was 64% and the “Mean lifespan, Treated” value ([2]; Trial 4, 100 μM, control 11.26 days) was 7.18 days. For the same compound, the Relative survival ([2]; Trial 5, 5 μM) was 102%, the “Mean lifespan, Treated” value ([2]; Trial 5, 5 μM, control 18.49 days) was 18.83 days and the Relative survival ([2]; Trial 5, 20 μM) was 89%. For the same compound, the “Mean lifespan, Treated” value ([2]; Trial 5, 20 μM, control 18.49 days) was 16.41 days, the Relative survival ([2]; Trial 5, 100 μM) was 82% and the “Mean lifespan, Treated” value ([2]; Trial 5, 100 μM, control 18.49 days) was 15.18 days. For the same compound, the Relative survival ([2]; Trial 6, 20 μM) was 59%, the “Mean lifespan, Treated” value ([2]; Trial 6, 20 μM, control 15.32 days) was 9.02 days and the Relative survival ([2]; Trial 6, 40 μM) was 52%. For the same compound, the “Mean lifespan, Treated” value ([2]; Trial 6, 40 μM, control 15.32 days) was 7.98 days, the Relative survival ([2]; Trial 6, 100 μM) was 49% and the “Mean lifespan, Treated” value ([2]; Trial 6, 100 μM, control 15.32 days) was 7.54 days.
